Data set [1] deals with Rattus norvegicus.
The subject of data set [2] is Apis mellifera. The note with it: acute, duration: 48 hours, mortality.
The test system of data set [3] is Canidae. The settings on record: chronic; duration: 1 years; oral; Dog Other; clinical chemistry.
Data set [4] relates to Colinus virginianus.
The test system of data set [5] is Daphnia magna. The note with it: chronic/long-term; duration: 21 days; reproduction.
Data set [6] concerns Oncorhynchus mykiss. The note with it: chronic/long-term; duration: 96 days; growth.
In data set [7] the test system is Tagia sp. The settings on record: acute; duration: 14 days; mortality.

SMILES strings stand for the structures.

By NOAEL is commonly meant the highest tested level that showed no adverse finding. For `CC1(C(=O)Nc2ccc(O)c(Cl)c2Cl)CCCCC1` [Fenhexamid], the LD50 is above 5000 mg/kg-day in data set [1] (acute, oral, mortality); above 200 µg/piece in data set [2] (dermal); above 102 µg/piece in data set [2] (oral, unspecified); above 2000 mg/kg-day in data set [4] (acute, oral, mortality). Moreover, the NOAEL came out at 40.2 mg/kg-day in data set [1] (reproduction developmental) and 19.2 mg/kg-day in data set [3]. For the same molecule, the LC50 in data set [4] (acute, oral, diet, mortality) was above 804 mg/kg-day; in data set [7] it was at least 1000 mg/kg. In addition, the NOEC in data set [4] (reproduction developmental) was 154 mg/kg-day; in data set [5] it was 1.03 mg/L; in data set [6] it was 0.101 mg/L.
